Reference: US20220133722A1, “PHARMACEUTICAL COMPOSITIONS” (QUE ONCOLOGY PTY LTD, priority 2019, published 2022)
Values joined by “and” are separate entries in the source; they are usually repeats but may differ in a detail not shown here. Identical values can stand only once. Like-named read-outs stand apart in the source and are kept apart here.

Assay: Part 2 PK study: 200 mg QD versus 100 mg BID for 10 days under fed conditions
Format: in vivo, human
Details: fed; for AUC: read-out: AUC0-tau; for Tmax: read-out: Tmax; for half-life: read-out: t½ (converted); for concentration at 10 day: read-out: Cmin; for Vd/F: read-out: Vz/F
Protocol: Part 2 involved analysing the PK parameters obtained following either single (QD) or twice daily (BD) dosing of a compound of formula (Ia) under fed conditions.
Subjects were randomized 1:1 to receive a daily dose of 200 mg administered once daily in the morning (200 mg capsule) or twice daily (100 mg capsules BID) for a total of 10 days. PK blood samples were taken on Day 1 pre-dose and at 0.25, 0.5, 1.0, 1.5, 2, 3, 4, 8, 10, 12 and 16 hours post-dose. On Days 2 to 10, PK blood samples were taken once pre-dose, and on Days 11 to 14, at 24, 36, 48, 60, 72 and 96 hours post-dose.
Subjects selected for participation checked into the clinical unit and were randomized to the dosing regimen receiving their first dose of study drug on the morning of Day 1 followed by PK and safety assessments through the morning of Day 2 (24 hours post-dose). Subjects on a BID regimen received their second dose of study drug approximately 12 hours after the first dose. Subjects remained confined in the clinic for dosing BID or QD through the last dose of study drug on the morning of Day 10. PK samples were collected through 96 hrs post-dose. Subjects were discharged from the clinic following collection of the 72 hr PK sample, returning to the clinic on the morning of Day 14 for the 96 hr sample collection.
For both Parts 1 and 2, samples were processed and analysed as follows. The method extracted Q-122 and the Internal Standard (IS, Q-122 ^13C4) from human plasma using protein precipitation extraction.
The analytes were separated by HPLC on a Phenomenex Synergi Polar-RP column, and the eluates monitored by an API4000 MS/MS detector in positive MRM mode. The extract was then assayed against a calibration curve. The data were acquired and processed by the data acquisition system Analyst® (Sciex) linked directly to the API4000 MS/MS detector and then processed in Watson LIMS™ (Thermo Scientific), where applicable. The method range is from 10.0 to 2500 ng/mL using 50 μL of matrix and has a run time of approximately 3.2 minutes per sample.
Plasma PK parameters for each dosing regimen and dose level were calculated from the concentrations of Q-122 and its major metabolites measured in pre-dose and post-dose plasma samples. For each dose level, descriptive statistics (sample size, arithmetic means, geometric means, standard deviation, % coefficient of variation, minimum, median, and maximum) are presented.
The pharmacokinetic results were processed according to standard non-compartmental analytical procedures. The software used was Phoenix™ WinNonlin® v 6.4 (Pharsight Corporation, USA) and Microsoft® Excel® 2010 (Microsoft Corporation). The following PK parameters were estimated from plasma data.

[1] = 200 mg QD, Day 10, individual subjects
[2] = human, plasma, oral, 100 mg, 100 mg BID, Day 1, individual subjects
[3] = human, plasma, oral, 100 mg, 100 mg BID, Day 1, mean
[4] = human, plasma, oral, 100 mg, 100 mg BID, Day 1, median
[5] = human, plasma, oral, 100 mg, 100 mg BID, Day 10, individual subjects
[6] = human, plasma, oral, 100 mg, 100 mg BID, Day 10, mean
[7] = human, plasma, oral, 100 mg, 100 mg BID, Day 10, median
[8] = human, plasma, oral, 200 mg, 200 mg QD, Day 1, mean
[9] = human, plasma, oral, 200 mg, 200 mg QD, Day 1, median
[10] = human, plasma, oral, 200 mg, 200 mg QD, Day 10, mean
[11] = human, plasma, oral, 200 mg, 200 mg QD, Day 10, median

% AUCexp (200 mg QD, Day 10, max): 10.70% | AUC0-last (200 mg QD, Day 10, max): 14024 ng·h/mL | AUC0-tau (200 mg QD, Day 10, max): 11036 ng·h/mL | AUCinf (200 mg QD, Day 10, max): 15111 ng·h/mL | Accum Index (200 mg QD, Day 10, max): 2.88 | CLss/F (200 mg QD, Day 10, max): 63.82 L/h | Cavg (200 mg QD, Day 10, max): 459.84 ng/mL | Cmax (200 mg QD, Day 10, max): 1730.00 ng/mL | Cmin (200 mg QD, Day 10, max): 93.90 ng/mL | Fluct (200 mg QD, Day 10, max): 401.43% | Tlast (200 mg QD, Day 10, max): 96.00 h | t½ (200 mg QD, Day 10, max): 39.04 h | % AUCexp (200 mg QD, Day 10, mean): 4.612% | CLss/F (200 mg QD, Day 10, mean): 27.396 L/h | Cavg (200 mg QD, Day 10, mean): 368.913 ng/mL | Cmin (200 mg QD, Day 10, mean): 73.267 ng/mL | Fluct (200 mg QD, Day 10, mean): 305.929% | Tlast (200 mg QD, Day 10, mean): 70.000 h | % AUCexp (200 mg QD, Day 10, median): 2.85% | Accum Index (200 mg QD, Day 10, median): 1.61 | CLss/F (200 mg QD, Day 10, median): 20.35 L/h | Cavg (200 mg QD, Day 10, median): 409.61 ng/mL | Cmin (200 mg QD, Day 10, median): 73.80 ng/mL | Fluct (200 mg QD, Day 10, median): 329.62% | Tlast (200 mg QD, Day 10, median): 66.00 h | % AUCexp (200 mg QD, Day 10, min): 1.77% | AUC0-last (200 mg QD, Day 10, min): 6077 ng·h/mL | AUC0-tau (200 mg QD, Day 10, min): 3134 ng·h/mL | AUCinf (200 mg QD, Day 10, min): 6805 ng·h/mL | Accum Index (200 mg QD, Day 10, min): 1.22 | CLss/F (200 mg QD, Day 10, min): 18.12 L/h | Cavg (200 mg QD, Day 10, min): 130.57 ng/mL | Cmax (200 mg QD, Day 10, min): 245.00 ng/mL | Cmin (200 mg QD, Day 10, min): 52.20 ng/mL | Fluct (200 mg QD, Day 10, min): 135.41% | Tlast (200 mg QD, Day 10, min): 48.00 h | t½ (200 mg QD, Day 10, min): 9.63 h | AUC(0-t) [2]: 8170 ng·h/mL | AUC [2]: 2800 ng·h/mL | AUC(0-t) [3]: 6630 ng·h/mL | AUC [3]: 3590 ng·h/mL | Cmax (human, plasma, oral, 100 mg, 100 mg BID, Day 1, mean, read-out: Cmax): 730 ng/mL | Tmax [3]: 2.25 h | half-life [3]: 5.49 h | AUC(0-t) [4]: 6640 ng·h/mL | AUC [4]: 3690 ng·h/mL | Cmax (human, plasma, oral, 100 mg, 100 mg BID, Day 1, median, read-out: Cmax): 809 ng/mL | Tmax [4]: 2 h | half-life [4]: 5.1 h | AUC(0-inf) [5]: 9020 ng·h/mL | AUC(0-t) [5]: 8810 ng·h/mL | AUC [5]: 7000 ng·h/mL | Cmax (human, plasma, oral, 100 mg, 100 mg BID, Day 10, individual subjects, read-out: Cmax): 1300 ng/mL | Tmax [5]: 2 h | AUC(0-inf) [6]: 7270 ng·h/mL | AUC(0-t) [6]: 6950 ng·h/mL | AUC [6]: 5440 ng·h/mL | Cmax (human, plasma, oral, 100 mg, 100 mg BID, Day 10, mean, read-out: Cmax): 1020 ng/mL | concentration at 10 day [6]: 146 ng/mL | Tmax [6]: 1.75 h | Vd/F [6]: 370 L | half-life [6]: 11.8 h | AUC(0-inf) [7]: 7310 ng·h/mL | AUC(0-t) [7]: 7040 ng·h/mL | AUC [7]: 5760 ng·h/mL | Cmax (human, plasma, oral, 100 mg, 100 mg BID, Day 10, median, read-out: Cmax): 1060 ng/mL | Tmax [7]: 2 h | Vd/F [7]: 210 L | half-life [7]: 8.2 h | Tmax (human, plasma, oral, 200 mg, 200 mg QD, Day 1, individual subjects): 3 h | AUC(0-t) [8]: 8060 ng·h/mL | AUC [8]: 8060 ng·h/mL | Cmax (human, plasma, oral, 200 mg, 200 mg QD, Day 1, mean, read-out: Cmax): 1350 ng/mL | Tmax [8]: 3.17 h | half-life [8]: 8.64 h | AUC(0-t) [9]: 7790 ng·h/mL | AUC [9]: 7790 ng·h/mL | Cmax (human, plasma, oral, 200 mg, 200 mg QD, Day 1, median, read-out: Cmax): 1560 ng/mL | Tmax [9]: 3 h | half-life [9]: 7.7 h | Tmax (human, plasma, oral, 200 mg, 200 mg QD, Day 10, individual subjects): 4 h | AUC(0-inf) [10]: 11100 ng·h/mL | AUC(0-t) [10]: 10600 ng·h/mL | AUC [10]: 8850 ng·h/mL | Cmax (human, plasma, oral, 200 mg, 200 mg QD, Day 10, mean, read-out: Cmax): 1270 ng/mL | concentration at 10 day [10]: 73 ng/mL | Tmax [10]: 3.33 h | Vd/F [10]: 881 L | half-life [10]: 20.5 h | AUC(0-inf) [11]: 11400 ng·h/mL | AUC(0-t) [11]: 11100 ng·h/mL | AUC [11]: 9830 ng·h/mL | Cmax (human, plasma, oral, 200 mg, 200 mg QD, Day 10, median, read-out: Cmax): 1440 ng/mL | Tmax [11]: 3.5 h | Vd/F [11]: 490 L | half-life [11]: 17.1 h
Structure (SMILES): c1cnc(NCc2ccc(CNc3ncccn3)cc2)nc1 [Q-122]
% AUCexp [1]: 2.32% and 3.36% and 2.33% and 7.19% and 10.70% and 1.77% | AUC0-last [1]: 12003 ng·h/mL and 11557 ng·h/mL and 9531 ng·h/mL and 14024 ng·h/mL and 6077 ng·h/mL and 10643 ng·h/mL | AUC0-tau [1]: 10424 ng·h/mL and 9904 ng·h/mL and 8868 ng·h/mL and 11036 ng·h/mL and 3134 ng·h/mL and 9758 ng·h/mL | AUCinf [1]: 12287 ng·h/mL and 11959 ng·h/mL and 9759 ng·h/mL and 15111 ng·h/mL and 6805 ng·h/mL and 10834 ng·h/mL | Accum Index [1]: 1.44 and 1.78 and 1.34 and 2.88 and 2.25 and 1.22 | CLss/F [1]: 19.19 L/h and 20.19 L/h and 22.55 L/h and 18.12 L/h and 63.82 L/h and 20.50 L/h | Cavg [1]: 434.33 ng/mL and 412.65 ng/mL and 369.52 ng/mL and 459.84 ng/mL and 130.57 ng/mL and 406.57 ng/mL | Cmax [1]: 1450.00 ng/mL and 1730.00 ng/mL and 1430.00 ng/mL and 1320.00 ng/mL and 245.00 ng/mL and 1470.00 ng/mL | Cmin [1]: 74.10 ng/mL and 73.50 ng/mL and 52.20 ng/mL and 93.90 ng/mL and 68.20 ng/mL and 77.70 ng/mL | Fluct [1]: 316.79% and 401.43% and 372.87% and 266.63% and 135.41% and 342.45% | Tlast [1]: 60.00 h and 72.00 h and 48.00 h (2×) and 96.00 h (2×) | t½ [1]: 13.99 h and 20.21 h and 12.03 h and 39.04 h and 28.35 h and 9.63 h
